Values of other authors in US20260020560A1, “AG[…] DIHYDROJASMONATE COMPOSITIONS” (priority 2022, published 2026).

Compound	pKa at 25° C.
O=S(=O)(O)CCN1CCN(CCO)CC1 [HEPES, 4-(2-hydroxyethyl)-1-piperazineethanesulfonic acid]	7.48
O=S(=O)(O)CC(O)CNC(CO)(CO)CO (centres unmarked) [TAPSO, 3-[N-tris(hydroxymethyl)methyl-amino]-2-hydroxypropanesulfonic acid]	7.635
